One data set concerns the target UBE2V1. In words: reporter assay of Huesken 2005. The settings on record: siRNA.
The next data set deals with SOST. In words: reporter assay of Huesken 2005. The settings on record: siRNA. A general note: In a reporter assay the amount or activity of a reporter protein is the signal.

Oligonucleotides are written 5' to 3', each unit as a sugar letter and its base; * is a phosphorothioate linkage, no mark a phosphodiester; rarer units and linkages stand in square brackets, end groups in braces. Plain capitals give the bases only. Oligonucleotides are given in HELM: sugar(base)linkage, 5' to 3'; d 2'-deoxyribose, r ribose, m 2'-O-methylribose, p phosphate. ss, as = sense and antisense strand; d = 2'-deoxy (DNA); r = 2'-OH (RNA)
Note: test concentration or dose not given here.

On to “sense rArGrUrArArArArGrUrCrCrCrUrCrGrCrArArUdTdT / antisense rArUrUrGrCrGrArGrGrGrArCrUrUrUrUrArCrUdCdC”, for which the normalised inhibition (eCFP-eYFP dual reporter) with UBE2V1 came out at 91%.

Substance “sense rUrUrGrUrCrCrUrGrCrArArGrArGrCrUrUrCrGdTdT / antisense rCrGrArArGrCrUrCrUrUrGrCrArGrGrArCrArAdCdT” came in with a normalised inhibition (eCFP-eYFP dual reporter) with UBE2V1 of 51.9%.

Substance “sense rUrGrGrGrGrUrCrUrArGrArArGrArUrGrArCrGdTdT / antisense rCrGrUrCrArUrCrUrUrCrUrArGrArCrCrCrCrAdGdC” gave a normalised inhibition (eCFP-eYFP dual reporter) with UBE2V1 of 38.8%.

The substance “sense rArGrArArArGrGrArGrUrArGrGrArGrArUrGrGdTdT / antisense rCrCrArUrCrUrCrCrUrArCrUrCrCrUrUrUrCrUdGdG” registered a normalised inhibition (eCFP-eYFP dual reporter) in the data set with UBE2V1 of 58.6%.

On to “sense rArArUrGrGrArGrUrGrGrUrGrGrArCrCrCrArAdTdT / antisense rUrUrGrGrGrUrCrCrArCrCrArCrUrCrCrArUrUdAdG”, for which the normalised inhibition (eCFP-eYFP dual reporter) in the data set with UBE2V1 amounted to 83.5%.

Substance “sense rCrCrCrUrCrGrCrArArUrUrUrCrCrGrArCrUrGdTdT / antisense rCrArGrUrCrGrGrArArArUrUrGrCrGrArGrGrGdAdC” gave a normalised inhibition (eCFP-eYFP dual reporter) in the data set with UBE2V1 of 84.5%.

“sense rArGrArArGrGrCrCrArGrArArArGrGrArGrUrAdTdT / antisense rUrArCrUrCrCrUrUrUrCrUrGrGrCrCrUrUrCrUdTdC” displayed a normalised inhibition (eCFP-eYFP dual reporter) with UBE2V1 of 86.1%.

In the data set with UBE2V1, “sense rArArCrCrUrArGrArArArArUrUrUrCrArCrUrGdTdT / antisense rCrArGrUrGrArArArUrUrUrUrCrUrArGrGrUrUdCdA” showed a normalised inhibition (eCFP-eYFP dual reporter) of 49.4%.

Turning to “sense rArGrArGrCrCrArUrArUrCrArGrUrGrCrUrArGdTdT / antisense rCrUrArGrCrArCrUrGrArUrArUrGrGrCrUrCrUdTdG”, in the data set with UBE2V1, the normalised inhibition (eCFP-eYFP dual reporter) was found to be 90.3%.

Consider “sense rGrUrCrUrArGrArArGrArUrGrArCrGrArArGrAdTdT / antisense rUrCrUrUrCrGrUrCrArUrCrUrUrCrUrArGrArCdCdC”, for which the normalised inhibition (eCFP-eYFP dual reporter) with UBE2V1 came to 92%.

In the case of “sense rArArArGrGrArGrUrArArArArGrUrCrCrCrUrCdTdT / antisense rGrArGrGrGrArCrUrUrUrUrArCrUrCrCrUrUrUdGdC”, the normalised inhibition (eCFP-eYFP dual reporter) with UBE2V1 is 65.6%.

The substance “sense rUrCrCrCrUrCrArGrCrCrGrCrCrCrGrArArGrGdTdT / antisense rCrCrUrUrCrGrGrGrCrGrGrCrUrGrArGrGrGrAdGdT” registered a normalised inhibition (eCFP-eYFP dual reporter) with UBE2V1 of 46.6%.

Substance “sense rCrCrUrCrCrArArGrArArCrArArUrUrUrArUrGdTdT / antisense rCrArUrArArArUrUrGrUrUrCrUrUrGrGrArGrGdCdC” displayed a normalised inhibition (eCFP-eYFP dual reporter) with UBE2V1 of 63.1%.

Substance “sense rArGrCrUrGrGrGrGrUrCrUrArGrArArGrArUrGdTdT / antisense rCrArUrCrUrUrCrUrArGrArCrCrCrCrArGrCrUdAdA” registered a normalised inhibition (eCFP-eYFP dual reporter) with UBE2V1 of 73%.

Regarding “sense rUrGrArGrUrGrArUrGrArArGrGrArArGrArCrUdTdT / antisense rArGrUrCrUrUrCrCrUrUrCrArUrCrArCrUrCrAdGdT”, in the data set with UBE2V1, the normalised inhibition (eCFP-eYFP dual reporter) was 62.3%.

The substance “sense rGrUrArGrGrArGrArUrGrGrCrArCrArGrUrUrAdTdT / antisense rUrArArCrUrGrUrGrCrCrArUrCrUrCrCrUrArCdTdC” displayed a normalised inhibition (eCFP-eYFP dual reporter) with UBE2V1 of 88.8%.

For “sense rCrArGrUrGrCrUrArGrCrArArArArUrGrGrCrAdTdT / antisense rUrGrCrCrArUrUrUrUrGrCrUrArGrCrArCrUrGdAdT”, in the data set with UBE2V1, the normalised inhibition (eCFP-eYFP dual reporter) stood at 87.5%.

In turn, “sense rArArArUrUrUrCrArCrUrGrCrArArArGrGrArGdTdT / antisense rCrUrCrCrUrUrUrGrCrArGrUrGrArArArUrUrUdTdC” came in with a normalised inhibition (eCFP-eYFP dual reporter) in the data set with UBE2V1 of 45.8%.

“sense rGrCrArGrArArUrUrCrArUrArUrArGrCrArUrCdTdT / antisense rGrArUrGrCrUrArUrArUrGrArArUrUrCrUrGrCdCdA” gave a normalised inhibition (eCFP-eYFP dual reporter) in the data set with UBE2V1 of 82%.

The substance “sense rUrArGrCrArArArArUrGrGrCrArGrArArUrUrCdTdT / antisense rGrArArUrUrCrUrGrCrCrArUrUrUrUrGrCrUrAdGdC” gave a normalised inhibition (eCFP-eYFP dual reporter) in the data set with UBE2V1 of 63%.

Regarding “sense rArGrGrArArGrArCrUrUrGrArArCrCrUrArGrAdTdT / antisense rUrCrUrArGrGrUrUrCrArArGrUrCrUrUrCrCrUdTdC”, the normalised inhibition (eCFP-eYFP dual reporter) with UBE2V1 amounted to 78%.

On to “sense rGrGrGrUrCrUrArGrArArGrArUrGrArCrGrArAdTdT / antisense rUrUrCrGrUrCrArUrCrUrUrCrUrArGrArCrCrCdCdA”, for which the normalised inhibition (eCFP-eYFP dual reporter) in the data set with UBE2V1 is 96.3%.

“RNA1{r(U)p.r(G)p.r(C)p.r(G)p.r(G)p.r(C)p.r(C)p.r(C)p.r(G)p.r(G)p.r(C)p.r(G)p.r(C)p.r(G)p.r(C)p.r(C)p.r(U)p.r(G)p.r(C)p.d(T)p.d(T)}|RNA2{r(G)p.r(C)p.r(A)p.r(G)p.r(G)p.r(C)p.r(G)p.r(C)p.r(G)p.r(C)p.r(C)p.r(G)p.r(G)p.r(G)p.r(C)p.r(C)p.r(G)p.r(C)p.r(A)p.d(C)p.d(T)}$$$RNA1{StrandType:ss}|RNA2{StrandType:as}$” yielded a normalised inhibition (eCFP-eYFP dual reporter) with SOST of 52.1%.

With “RNA1{r(U)p.r(G)p.r(C)p.r(A)p.r(A)p.r(G)p.r(C)p.r(G)p.r(C)p.r(C)p.r(U)p.r(C)p.r(A)p.r(C)p.r(C)p.r(C)p.r(G)p.r(C)p.r(U)p.d(T)p.d(T)}|RNA2{r(A)p.r(G)p.r(C)p.r(G)p.r(G)p.r(G)p.r(U)p.r(G)p.r(A)p.r(G)p.r(G)p.r(C)p.r(G)p.r(C)p.r(U)p.r(U)p.r(G)p.r(C)p.r(A)p.d(C)p.d(T)}$$$RNA1{StrandType:ss}|RNA2{StrandType:as}$”, in the data set with SOST, the normalised inhibition (eCFP-eYFP dual reporter) was determined as 66.2%.

Substance “RNA1{r(C)p.r(C)p.r(U)p.r(C)p.r(C)p.r(A)p.r(C)p.r(C)p.r(G)p.r(G)p.r(A)p.r(G)p.r(C)p.r(U)p.r(G)p.r(G)p.r(A)p.r(G)p.r(A)p.d(T)p.d(T)}|RNA2{r(U)p.r(C)p.r(U)p.r(C)p.r(C)p.r(A)p.r(G)p.r(C)p.r(U)p.r(C)p.r(C)p.r(G)p.r(G)p.r(U)p.r(G)p.r(G)p.r(A)p.r(G)p.r(G)p.d(C)p.d(T)}$$$RNA1{StrandType:ss}|RNA2{StrandType:as}$” gave a normalised inhibition (eCFP-eYFP dual reporter) with SOST of 68.8%.

With “RNA1{r(C)p.r(G)p.r(C)p.r(G)p.r(C)p.r(G)p.r(C)p.r(G)p.r(C)p.r(G)p.r(C)p.r(A)p.r(A)p.r(G)p.r(G)p.r(U)p.r(G)p.r(C)p.r(G)p.d(T)p.d(T)}|RNA2{r(C)p.r(G)p.r(C)p.r(A)p.r(C)p.r(C)p.r(U)p.r(U)p.r(G)p.r(C)p.r(G)p.r(C)p.r(G)p.r(C)p.r(G)p.r(C)p.r(G)p.r(C)p.r(G)p.d(G)p.d(C)}$$$RNA1{StrandType:ss}|RNA2{StrandType:as}$”, the normalised inhibition (eCFP-eYFP dual reporter) with SOST is 60.6%.

With “RNA1{r(A)p.r(C)p.r(G)p.r(U)p.r(G)p.r(U)p.r(C)p.r(C)p.r(G)p.r(A)p.r(G)p.r(U)p.r(A)p.r(C)p.r(A)p.r(G)p.r(C)p.r(U)p.r(G)p.d(T)p.d(T)}|RNA2{r(C)p.r(A)p.r(G)p.r(C)p.r(U)p.r(G)p.r(U)p.r(A)p.r(C)p.r(U)p.r(C)p.r(G)p.r(G)p.r(A)p.r(C)p.r(A)p.r(C)p.r(G)p.r(U)p.d(C)p.d(T)}$$$RNA1{StrandType:ss}|RNA2{StrandType:as}$”, in the data set with SOST, the normalised inhibition (eCFP-eYFP dual reporter) came to 74.9%.

Consider “RNA1{r(G)p.r(G)p.r(A)p.r(C)p.r(U)p.r(U)p.r(C)p.r(G)p.r(G)p.r(G)p.r(A)p.r(C)p.r(C)p.r(G)p.r(A)p.r(G)p.r(G)p.r(C)p.r(C)p.d(T)p.d(T)}|RNA2{r(G)p.r(G)p.r(C)p.r(C)p.r(U)p.r(C)p.r(G)p.r(G)p.r(U)p.r(C)p.r(C)p.r(C)p.r(G)p.r(A)p.r(A)p.r(G)p.r(U)p.r(C)p.r(C)p.d(T)p.d(T)}$$$RNA1{StrandType:ss}|RNA2{StrandType:as}$”, for which the normalised inhibition (eCFP-eYFP dual reporter) with SOST was determined as 53.8%.

Regarding “RNA1{r(C)p.r(U)p.r(G)p.r(G)p.r(U)p.r(G)p.r(G)p.r(C)p.r(C)p.r(U)p.r(C)p.r(G)p.r(U)p.r(G)p.r(C)p.r(A)p.r(A)p.r(G)p.r(U)p.d(T)p.d(T)}|RNA2{r(A)p.r(C)p.r(U)p.r(U)p.r(G)p.r(C)p.r(A)p.r(C)p.r(G)p.r(A)p.r(G)p.r(G)p.r(C)p.r(C)p.r(A)p.r(C)p.r(C)p.r(A)p.r(G)p.d(G)p.d(C)}$$$RNA1{StrandType:ss}|RNA2{StrandType:as}$”, in the data set with SOST, the normalised inhibition (eCFP-eYFP dual reporter) turned out to be 52.5%.

“RNA1{r(G)p.r(U)p.r(A)p.r(G)p.r(U)p.r(G)p.r(G)p.r(A)p.r(G)p.r(G)p.r(G)p.r(C)p.r(C)p.r(A)p.r(G)p.r(G)p.r(G)p.r(G)p.r(U)p.d(T)p.d(T)}|RNA2{r(A)p.r(C)p.r(C)p.r(C)p.r(C)p.r(U)p.r(G)p.r(G)p.r(C)p.r(C)p.r(C)p.r(U)p.r(C)p.r(C)p.r(A)p.r(C)p.r(U)p.r(A)p.r(C)p.d(A)p.d(C)}$$$RNA1{StrandType:ss}|RNA2{StrandType:as}$” had a normalised inhibition (eCFP-eYFP dual reporter) with SOST of 63.5%.

Regarding “RNA1{r(U)p.r(U)p.r(C)p.r(A)p.r(C)p.r(C)p.r(C)p.r(G)p.r(C)p.r(U)p.r(A)p.r(C)p.r(G)p.r(U)p.r(G)p.r(A)p.r(C)p.r(C)p.r(G)p.d(T)p.d(T)}|RNA2{r(C)p.r(G)p.r(G)p.r(U)p.r(C)p.r(A)p.r(C)p.r(G)p.r(U)p.r(A)p.r(G)p.r(C)p.r(G)p.r(G)p.r(G)p.r(U)p.r(G)p.r(A)p.r(A)p.d(G)p.d(T)}$$$RNA1{StrandType:ss}|RNA2{StrandType:as}$”, the normalised inhibition (eCFP-eYFP dual reporter) with SOST was 57.5%.

For “RNA1{r(A)p.r(A)p.r(G)p.r(A)p.r(C)p.r(G)p.r(U)p.r(G)p.r(U)p.r(C)p.r(C)p.r(G)p.r(A)p.r(G)p.r(U)p.r(A)p.r(C)p.r(A)p.r(G)p.d(T)p.d(T)}|RNA2{r(C)p.r(U)p.r(G)p.r(U)p.r(A)p.r(C)p.r(U)p.r(C)p.r(G)p.r(G)p.r(A)p.r(C)p.r(A)p.r(C)p.r(G)p.r(U)p.r(C)p.r(U)p.r(U)p.d(T)p.d(G)}$$$RNA1{StrandType:ss}|RNA2{StrandType:as}$”, the normalised inhibition (eCFP-eYFP dual reporter) with SOST was 87.1%.

In turn, “RNA1{r(C)p.r(C)p.r(G)p.r(C)p.r(G)p.r(A)p.r(G)p.r(C)p.r(U)p.r(G)p.r(C)p.r(A)p.r(C)p.r(U)p.r(U)p.r(C)p.r(A)p.r(C)p.r(C)p.d(T)p.d(T)}|RNA2{r(G)p.r(G)p.r(U)p.r(G)p.r(A)p.r(A)p.r(G)p.r(U)p.r(G)p.r(C)p.r(A)p.r(G)p.r(C)p.r(U)p.r(C)p.r(G)p.r(C)p.r(G)p.r(G)p.d(C)p.d(A)}$$$RNA1{StrandType:ss}|RNA2{StrandType:as}$” yielded a normalised inhibition (eCFP-eYFP dual reporter) in the data set with SOST of 66.8%.

For the origin of these results see the OligoGym collection.
